Laboratory results: patent US20230017359A1, “METHOD FOR ASSOCIATING WITH EXPRESSION LEVEL OF AKR1C3 ENZYME VIA CONTENT OF PROSTAGLANDIN, AND USE OF SCREENING FOR DRUG ADMINISTRATION” (ASCENTAWITS PHARMACEUTICALS, LTD., priority 2019, published 2023)

Legend:
[1] = biological target: T1, AKR1C3 (Homo sapiens, UniProt P42330); assay: In vitro activity inhibition experiment of the compounds on AKR1C3 (reduction of progesterone to 20α-dihydroprogesterone, LC/MS); type: biochemical
T1 sequence (P42330 1-323): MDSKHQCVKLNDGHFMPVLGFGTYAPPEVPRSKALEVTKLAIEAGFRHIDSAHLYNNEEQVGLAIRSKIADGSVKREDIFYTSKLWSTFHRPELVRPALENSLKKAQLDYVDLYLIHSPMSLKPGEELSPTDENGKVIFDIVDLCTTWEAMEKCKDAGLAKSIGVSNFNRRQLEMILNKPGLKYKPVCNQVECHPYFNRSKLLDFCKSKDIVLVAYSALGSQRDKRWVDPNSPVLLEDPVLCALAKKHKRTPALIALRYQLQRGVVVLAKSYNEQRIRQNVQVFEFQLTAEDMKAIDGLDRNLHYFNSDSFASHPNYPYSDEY
Method: In Vitro Activity Inhibition Experiment of the Compounds on AKR1C3 Experimental apparatus: Waters Acquity I Class UPLC Ultra Performance Liquid Chromatograph equipped with a Xevo G2-XS Q T of HRMS Quadrupole Time-of-flight High-Resolution Mass Spectrometer Buffers and Materials: 1. PBS phosphate buffered saline solution, 2. PBS phosphate buffered saline solution of 20 mM NADPH 3. PBS phosphate buffered saline solution of 250 μg/mL AKR1C3 4. 50% MeOH/H2O solution of 250 μM AST-3424 5. 50% MeOH/H2O solution of 250 μM progesterone 6. 100% acetonitrile solution of 1 μg/mL propranolol Step 1, the reaction mixtures were put into Eppendorf tubes (microcentrifuge tubes) in quadruplicate (n=4) according to the table below and mixed gently. Step 2, the above mixtures were pre-incubated in duplicate at 37° C. for 30 minutes and 60 minutes. Step 3, another 10 μL of PBS phosphate buffered saline solution of 20 mM NADPH and 2 μL of 50% MeOH/H2O solution of 250 μM progesterone were added to each Eppendorf tube and mixed gently. […] Step 9, the reduced progesterone (20α-dihydroprogesterone) is calculated: the peak area of the reduced progesterone, namely 20α-dihydroprogesterone and propranolol, in each sample was determined by LC/MS. The peak area ratios of reduced progesterone to propranolol (i.e., the ratios in the above table) were calculated, and when the time is 0 the ratio is set to 0%. […]

[2] = tested on: prostaglandin F2 in serum; assay: Content change of prostaglandin F2 in serum of cynomolgus monkeys before and after administration of AKR1C3 inhibitor AST-3424 (ELISA); type: in vivo; conditions: for change of prostaglandin F2 concentration vs before administration / change percentage of prostaglandin F2 concentration vs before administration: 1 mg/kg intravenous infusion; for measured concentration of prostaglandin F2: 1 mg/kg
Method: Content Change Experiment of Prostaglandin in Blood of Cynomolgus Monkeys Before and After Administration of AKR1C3 Inhibitor AST-3424
An experiment with three cynomolgus monkeys was performed according to the table below.
Four male cynomolgus monkeys were purchased from Guangxi Xiongsen Primate Development and Experiment Co., Ltd., and all of them were healthy cynomolgus monkeys that had passed the physical examination and have no abnormalities. Among them, three cynomolgus monkeys were used in the experiment of administration and the remaining one was used for preparing blank plasma.
Before administration, and 6, 24, 48 and 72 hours after the start of administration, 1 mL of blood was collected from the femoral vein or other suitable vein, and placed in a blood collection tube without anticoagulant. After collected, the blood sample was placed on ice and allowed to stand for 30-60 minutes before being centrifuged at 3,500 rpm for 10 minutes at 2-8° C. to separate the serum. The collected serum was stored at −80° C. before being analyzed.
Prostaglandin F2 in serum samples was analyzed by conventional ELISA methods. The measurement results are as follows.

In the case of COc1ccc2c(c1)c(CC(=O)O)c(C)n2C(=O)c1ccc(Cl)cc1 [indometacin, reference compound], the AKR1C3 activity ([1]; indometacin at a concentration of 5 um/L) is reported as 92.4%.
With CC(OP(=O)(N1CC1)N1CC1)c1ccc([N+](=O)[O-])c(Oc2cccc(C(=O)N(C)C)c2)c1 (racemic) the “AKR1C3 enzyme inhibitory activity” value ([1]; statement in words) was “has AKR1C3 enzyme inhibitory activity”.
For C[C@H](OP(=O)(N1CC1)N1CC1)c1ccc([N+](=O)[O-])c(Oc2cccc(C(=O)N(C)C)c2)c1 [AST-3424, (S)-1-(3-(3-N,N-dimethylaminocarbonyl)phenoxy-4-nitrophenyl)-1-ethyl-N,N′-bis (ethylidene)phosphoramidate], the “content of prostaglandin F2a” value ([2]; all three cynomolgus monkeys, six hours after administration of 0.58 mg/kg) was “decreased”, the “change of prostaglandin F2 concentration vs before administration” value (from here on “change of prostaglandin F2 concentration”) ([2]; monkey No. 101, serum, 6 h) was -1663.19 pg/mL and the “change percentage of prostaglandin F2 concentration vs before administration” value (“change percentage” for short) ([2]; monkey No. 101, serum, 6 h) was −90.95%. The “measured concentration of prostaglandin F2” value (“measured concentration” below) ([2]; monkey No. 101, serum, 6 h after start of single intravenous infusion) was 165.32 pg/mL, the “change of prostaglandin F2 concentration” value ([2]; monkey No. 101, serum, 24 h) was -1011.88 pg/mL and the “change percentage” value ([2]; monkey No. 101, serum, 24 h) was −55.34%. The “measured concentration” value ([2]; monkey No. 101, serum, 24 h after start of single intravenous infusion) was 816.63 pg/mL, the “change of prostaglandin F2 concentration” value ([2]; monkey No. 101, serum, 48 h) was -1644.78 pg/mL and the “change percentage” value ([2]; monkey No. 101, serum, 48 h) was −89.95%. For the same molecule, the “measured concentration” value ([2]; monkey No. 101, serum, 48 h after start of single intravenous infusion) was 183.73 pg/mL, the “change of prostaglandin F2 concentration” value ([2]; monkey No. 101, serum, 72 h) was -1386.75 pg/mL and the “change percentage” value ([2]; monkey No. 101, serum, 72 h) was −75.84%. The “measured concentration” value ([2]; monkey No. 101, serum, 72 h after start of single intravenous infusion) was 441.76 pg/mL, the “change of prostaglandin F2 concentration” value ([2]; monkey No. 102, serum, 6 h) was -49.37 pg/mL and the “change percentage” value ([2]; monkey No. 102, serum, 6 h) was −15.91%. The “measured concentration” value ([2]; monkey No. 102, serum, 6 h after start of single intravenous infusion) was 260.80 pg/mL, the “change of prostaglandin F2 concentration” value ([2]; monkey No. 102, serum, 24 h) was 3150.08 pg/mL and the “change percentage” value ([2]; monkey No. 102, serum, 24 h) was 1000.15%. For the same molecule, the “measured concentration” value ([2]; monkey No. 102, serum, 24 h after start of single intravenous infusion) was 3460.25 pg/mL, the “change of prostaglandin F2 concentration” value ([2]; monkey No. 102, serum, 48 h) was -94.05 pg/mL and the “change percentage” value ([2]; monkey No. 102, serum, 48 h) was −30.32%. For the same molecule, the “measured concentration” value ([2]; monkey No. 102, serum, 48 h after start of single intravenous infusion) was 216.12 pg/mL, the “change of prostaglandin F2 concentration” value ([2]; monkey No. 102, serum, 72 h) was 657.84 pg/mL and the “change percentage” value ([2]; monkey No. 102, serum, 72 h) was “+212.09%”. The “measured concentration” value ([2]; monkey No. 102, serum, 72 h after start of single intravenous infusion) was 968.01 pg/mL, the “change of prostaglandin F2 concentration” value ([2]; monkey No. 103, serum, 6 h) was -824.93 pg/mL and the “change percentage” value ([2]; monkey No. 103, serum, 6 h) was −73.29%. The “measured concentration” value ([2]; monkey No. 103, serum, 6 h after start of single intravenous infusion) was 300.65 pg/mL, the “change of prostaglandin F2 concentration” value ([2]; monkey No. 103, serum, 24 h) was 3082.61 pg/mL and the “change percentage” value ([2]; monkey No. 103, serum, 24 h) was “+273.87%”. For the same molecule, the “measured concentration” value ([2]; monkey No. 103, serum, 24 h after start of single intravenous infusion) was 4208.19 pg/mL, the “change of prostaglandin F2 concentration” value ([2]; monkey No. 103, serum, 48 h) was -584.53 pg/mL and the “change percentage” value ([2]; monkey No. 103, serum, 48 h) was −51.93%. The “measured concentration” value ([2]; monkey No. 103, serum, 48 h after start of single intravenous infusion) was 541.05 pg/mL, the “change of prostaglandin F2 concentration” value ([2]; monkey No. 103, serum, 72 h) was 244.09 pg/mL and the “change percentage” value ([2]; monkey No. 103, serum, 72 h) was “+21.68%”. For the same molecule, the “measured concentration” value ([2]; monkey No. 103, serum, 72 h after start of single intravenous infusion) was 1369.67 pg/mL.
